Results: US20230265083A1, “Heterocycle CDK Inhibitors And Their Use Thereof” (Prelude Therapeutics Incorporated, priority 2020, published 2023)

What was measured:
[1] = target: T1, CDK9/Cyclin T1 (Homo sapiens, UniProt P50750); test: CDK9/CyclinT1 Enzymatic Activity Assay (TR-FRET); assay type: biochemical; conditions: ATP 1 mM, recombinant CDK9/Cyclin T1 1 nM, read-out: CDK9_T1 IC50
T1 construct: purchased ProQinase; host or cells: insect cell
Procedure: CDK9/CyclinT1 Enzymatic Activity Assay
(§1) The inhibitory activity of compounds was evaluated in vitro using TR-FRET assay with white 384-well low volume microplate (Greiner Bio-One). CDK9/Cyclin T1 catalyzed phosphorylation of peptides in the presence and absence of compounds was measured and used in IC50 determination. Recombinant protein complex CDK9/Cyclin T1, expressed from insect cell, was purchased from ProQinase. Testing compounds were dissolved in DMSO at 1 mM and tested in 9-dose IC50 mode. The reaction mixture was prepared by mixing CDK9/CyclinT1 (1 nM final), ULight-4E-BP1 (50 nM final, Perkinelmer, TRF0128-D), and ATP (1 mM final) in assay buffer (20 mM of HEPES pH 7.4, 1 mM of EGTA, 0.05% BSA, 0.005% Tween 20, and 1 mM TCEP). The compound of interest in DMSO was added to each well in 3-fold serial dilution by the dispenser (TECAN D300E) to make a 9.9 μL of the reaction mixture. After 20 minutes of preincubation at room temperature, 0.1 μL MgCl2 (10 mM final) was added to initiate the reaction. Following a 45 minutes incubation at 37° C., the reaction was stopped by the addition of 2 μL of quenching buffer consisting of Lance detection buffer (Perkinelmer CR97-100C), LANCE Ultra Europium-anti-P-4E-BP1 (Perkinelmer, TRF0216-D), EDTA, and incubate at room temperature for additional 60 minutes in the dark. The reaction signal was measured by Envision multimode plate reader (PerkinElmer, 2102-0010). IC50 values were determined by fitting the data to the standard 4 parameters with Hill Slope using GraphPad Prism software.

[2] = target: T2, CDK4/Cyclin D1 (Homo sapiens, UniProt P11802); test: CDK4/CyclinD1 Enzymatic Activity Assay (TR-FRET); assay type: biochemical; conditions: ATP 2 mM, recombinant CDK4/Cyclin D1 1 nM, read-out: CDK4_D1 IC50
T2 construct: purchased ProQinase; host or cells: insect cell
T2 sequence (P11802 whole entry): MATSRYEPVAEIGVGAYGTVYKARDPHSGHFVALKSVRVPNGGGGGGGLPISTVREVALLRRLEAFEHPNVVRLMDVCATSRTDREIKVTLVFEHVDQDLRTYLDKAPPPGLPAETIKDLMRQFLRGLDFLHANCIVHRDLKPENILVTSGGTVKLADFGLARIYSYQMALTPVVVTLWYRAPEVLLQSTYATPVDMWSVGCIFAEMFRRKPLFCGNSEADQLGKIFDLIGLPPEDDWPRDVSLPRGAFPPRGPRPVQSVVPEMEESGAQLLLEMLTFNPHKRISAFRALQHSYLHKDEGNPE
T2 sequence (P24385 whole entry partner): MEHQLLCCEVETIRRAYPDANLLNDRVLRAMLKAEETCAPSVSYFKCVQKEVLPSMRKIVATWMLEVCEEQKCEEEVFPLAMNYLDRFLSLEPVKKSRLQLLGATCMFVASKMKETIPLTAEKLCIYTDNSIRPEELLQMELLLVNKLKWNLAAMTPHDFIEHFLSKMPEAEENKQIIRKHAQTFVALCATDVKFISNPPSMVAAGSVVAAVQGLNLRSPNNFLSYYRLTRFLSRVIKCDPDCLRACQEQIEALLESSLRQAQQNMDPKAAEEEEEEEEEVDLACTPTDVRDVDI
Procedure: CDK4/CyclinD1 Enzymatic Activity Assay
as §1, with “Bio-One). CDK4/Cyclin D1” for “Bio-One). CDK9/Cyclin T1”, “complex CDK4/Cyclin D1,” for “complex CDK9/Cyclin T1,”, “mixing CDK4/CyclinD1” for “mixing CDK9/CyclinT1”, “ULight-4E-BP1 (100” for “ULight-4E-BP1 (50”, “ATP (2” for “ATP (1”

[3] = target: T3, CDK2/Cyclin A2 (Homo sapiens, UniProt P24941); test: CDK2/CyclinA2 Enzymatic Activity Assay (TR-FRET); assay type: biochemical; conditions: ATP 1 mM, recombinant CDK2/Cyclin A2 1 nM, read-out: CDK2_A2 IC50
T3 construct: purchased ProQinase; host or cells: insect cell
Procedure: CDK2/CyclinA2 Enzymatic Activity Assay
as §1, with “(Greiner Bio-One). CDK2/Cyclin A2 catalyzed phosphorylation” for “(Greiner Bio-One). CDK9/Cyclin T1 catalyzed phosphorylation”, “protein complex CDK2/Cyclin A2, expressed from” for “protein complex CDK9/Cyclin T1, expressed from”, “by mixing CDK2/CyclinA2 (1 nM” for “by mixing CDK9/CyclinT1 (1 nM”, “20 minutes preincubation at” for “20 minutes of preincubation at”, “stopped by addition of” for “stopped by the addition of”

[4] = system: H929 cells; test: CellTiter-Glo Protocol (Proliferation); assay type: cell-based; conditions: Homo sapiens, NCI-H929, 24 hours, read-out: PROLIFERATION_CTG_H929 IC50
Procedure: CellTiter-Glo® Protocol (Proliferation)
Dispense 10 μL aliquot of prepared H929 cells (1:1 ratio of cells: Trypan Blue (#1450013, Bio-Rad)) onto cell counting slide (#145-0011, Bio-Rad) and obtain cell density and cell viability using a cell counter (TC20, Bio-Rad). Remove appropriate volume of resuspended cells from culture flask to accommodate 4000 cells/well at 10 μL/well. Transfer H929 cells to 50 mL conical (#430290, Corning). Spin down at 1000 rpm for 5 min. using a tabletop centrifuge (SPINCHRON 15, Beckman). Discard supernatant and resuspend cell pellet in modified RPMI 1640 (#10-040-CV, Corning) cell culture media containing 10% FBS (F2422-500ML, Sigma), sodium pyruvate (100 mM) (#25-000-CL, Corning), HEPES buffer (1M) (#25-060-CL, Corning) and glucose (200 g/L) (A24940-01, Gibco) to a cell density of 400,000 cells/mL. Dispense 10 μL of resuspended H929 cells per well in 384-well small volume TC treated plate (#784080, Greiner Bio-one) using standard cassette (#50950372, Thermo Scientific) on Multidrop Combi (#5840310, Thermo Scientific) in laminar flow cabinet. Dispense compounds onto plates using a digital liquid dispenser (D300E, Tecan). Incubate plates in humidified tissue culture incubator at 37° C. for 24 hours. Add 10 μL of prepared CellTiTer-Glo® detection buffer (G7570, Promega) to each well of 384-well plate using small tube cassette (#24073295, Thermo Scientific) on Combi multi-drop, incubate at RT for 30-60 min. Read plates with a microplate reader (PheraStar, BMG Labtech) using 384 well luminescence mode. See Table B (Proliferation_CTG_H929).

T1 sequence (P50750 whole entry): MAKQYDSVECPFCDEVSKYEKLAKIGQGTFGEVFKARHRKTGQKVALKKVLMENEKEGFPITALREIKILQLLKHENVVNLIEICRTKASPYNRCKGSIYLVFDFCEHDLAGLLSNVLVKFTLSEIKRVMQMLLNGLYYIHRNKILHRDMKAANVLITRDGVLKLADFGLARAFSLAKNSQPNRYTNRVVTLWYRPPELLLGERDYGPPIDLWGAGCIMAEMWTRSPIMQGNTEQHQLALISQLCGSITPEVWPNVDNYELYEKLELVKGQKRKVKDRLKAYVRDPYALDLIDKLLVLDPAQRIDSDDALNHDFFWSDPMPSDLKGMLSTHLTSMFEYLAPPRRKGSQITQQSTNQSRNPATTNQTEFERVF
T1 sequence (O60563 whole entry partner): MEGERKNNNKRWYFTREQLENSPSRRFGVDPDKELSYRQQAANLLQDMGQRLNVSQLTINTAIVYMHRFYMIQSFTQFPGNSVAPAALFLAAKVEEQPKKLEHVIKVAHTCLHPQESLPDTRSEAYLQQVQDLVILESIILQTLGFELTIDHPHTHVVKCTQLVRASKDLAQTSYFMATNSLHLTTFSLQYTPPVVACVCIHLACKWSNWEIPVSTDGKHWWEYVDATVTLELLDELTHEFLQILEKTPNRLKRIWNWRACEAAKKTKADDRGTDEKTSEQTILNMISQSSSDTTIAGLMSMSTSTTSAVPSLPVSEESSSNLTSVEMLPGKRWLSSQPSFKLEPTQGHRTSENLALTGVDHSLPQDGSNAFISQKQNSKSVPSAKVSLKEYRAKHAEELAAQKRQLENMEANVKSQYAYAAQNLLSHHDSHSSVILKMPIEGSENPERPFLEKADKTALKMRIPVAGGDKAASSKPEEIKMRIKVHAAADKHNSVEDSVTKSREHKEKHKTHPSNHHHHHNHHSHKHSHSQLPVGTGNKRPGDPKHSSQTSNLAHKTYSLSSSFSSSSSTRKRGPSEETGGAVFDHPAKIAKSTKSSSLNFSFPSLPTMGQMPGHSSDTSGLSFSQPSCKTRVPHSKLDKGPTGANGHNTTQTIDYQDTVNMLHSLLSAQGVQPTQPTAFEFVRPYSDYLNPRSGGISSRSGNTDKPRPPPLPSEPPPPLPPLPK

IC50 [1]: 20 to 200 nM
IC50 [2]: > 1000 nM
IC50 [3]: > 1000 nM
IC50 [4]: 200 to 1000 nM
SMILES: Cc1cnc(NC(=O)[C@H]2CCC[C@@H](NC(=O)CC#N)C2)cc1-c1cccc2c1OCCN2 [Example 8, (1S,3R)-3-(2-cyanoacetamido)-N-(4-(3,4-dihydro-2H-benzo[b][1,4]oxazin-8-yl)-5-methylpyridin-2-yl)cyclohexane-1-carboxamide]
